From publication PMC4838890, “Dynamic and flexible H3K9me3 bridging via HP1β dimerization establishes a plastic state of condensed chromatin” (Nature Communications, 2016) come the findings set out here.

In one assay the test system is H3K9me0 oligonucleosomes. As to the kind of experiment: Fluorescence correlation spectroscopy (FCS), H3K9me0 oligonucleosomes. It is filed as biochemical, Xenopus laevis. Particulars: 150 mM NaCl. Here is the method:
All fluorescence measurements were performed with a pulsed custom-built mode-locked Ti:Sa-Laser and a confocal two-photon fluorescence microscope setup. Detailed description of the experimental setup and the measurement procedure are available on request. In all cases 10 nM of the acceptor labelled species, ATTO 610-labelled nucleosomal array, was incubated with 20–200 μM of recombinant hHP1β in 10 μl of 10 mM triethanolamine HCl (pH 7.5), 0.1 mM EDTA, 150 mM NaCl at 4°C. For each sample the fluorescence correlation curve, fluorescence intensity and anisotropy values were determined at 22°C. Every data point was averaged over a minimum of 15 single measurements of 10 s each. […]
The fluorescence data were analysed using the correlation function [drawing 1] , and the equation for free diffusion of particles [drawing 2] , where I(t) is the fluorescence intensity measured at time t, N the particle number, τD the diffusion time, and r0=0.25 the axis ratio of the focal region, considering the dimensions of a Gaussian beam waist. […]
(b) Results of stepwise precipitation and resolubilization after clustering H3K9me3-oligonucleosomes by hHP1β at different concentrations. DNA remaining in the supernatant after centrifugation was incubated with EtBr and measured by fluorescence reading. […]
(c) Instrumental setup used for two -photon fluorescence correlation spectroscopy (FCS). […]

The test system of assay [1] is H3K9me3 oligonucleosomes in the absence of the H4 N-terminal tail. As to the kind of experiment: Chromatin coprecipitation, H3K9me3 oligonucleosomes with tailless H4. The format is binding, Xenopus laevis. Conditions: 150 mM NaCl, western blot. The protocol: […] Precipitated chromatin complexes were recovered by centrifugation at 16,100g for 30 min at 4°C. Pellets were washed once with 0.5 ml binding buffer and centrifuged for 15 min at 4 °C. Precipitated material was resuspended in 10 μl 1 × SDS loading buffer and boiled for 5 min before running on SDS–PAGE.
Supplementary Table 1: Summary of conditions used in the different experiments of this study.
experiment result modification template Temp. [NaCl] [MgCl2]
chromatin Fig. 1e,f; Fig. S1f-h; H3K9me3 oligo- 4 150 5
A general note: Immunoblotting shows a protein as a band on a membrane.

Assay [2] relates to immobilized H3 tail peptides, mono- and oligonucleosomes. As to the kind of experiment: Pull-down, H3 tail peptides, mono- and oligonucleosomes. Conditions: immobilized on streptavidin beads, 4°C. It is filed as binding, Xenopus laevis. Here is the method:
(§1) 4 μg C-terminally biotinylated histone H3 peptides (aa 1–20) or 1 μg of biotinylated nucleosomes or oligonucleosomal arrays were incubated with 40 μl Streptavidin MagnaSphere Paramagmetic beads (Promega, Mannheim, Germany) in 350 μl binding buffer (10 mM triethanolamine (pH 7.5), 150 mM NaCl, 0.1 mM EDTA, 0.1% (v/v) Triton-X100) supplemented with 1 mg ml^−1 BSA for 2.5 h at RT. Unbound material was removed by three washes with 0.5 ml binding buffer. Charged beads were then incubated with 100 pmol recombinant protein in 350 μl binding buffer for 1 h at 4°C on a rotator. Beads were washed three times with 0.5 ml binding buffer for 3 min per wash at 4°C. Bound proteins were eluted in 20 μl 1 × SDS loading buffer and by boiling for 5 min.
(§2) Supplementary Table 1: Summary of conditions used in the different experiments of this study. experiment result modification template Temp. [NaCl] [MgCl2] […]
(§3) chromatin Fig. 1e,f; Fig. S1f-h; H3K9me3 oligo- 4 150 5 coprecipitation Fig. S2b nucleosomes
(§4) Fig. S7d,f; Fig.S9c nucleosomes […]
(§5) chromatin sedimentation Fig. 4a; H3K9me3 oligo- 4 150 0
(§6) (single point) Fig. S3b nucleosomes […]
(§7) chromatin sedimentation. oligo-(titration) Fig. 3a H3K9me3 nucleosomes 4 150 0

The target in another assay is T1, H3K9me3 peptide (Homo sapiens, UniProt P68431).
T1 construct: C-terminally biotinylated histone H3 peptides (aa 1–20)
The experiment in a line: Pull-down, immobilized H3K9me3 peptide. It is filed as binding. Conditions: H3-tail peptides densely immobilized on magnetic beads, 100 pmol protein, 150 mM NaCl, 4°C. The protocol:
as §1, §2, §3, §4, §5, §6, §7

Entries after “also recorded” stand apart in the source; their conditions may differ.

For “hHP1β WT: recombinant human heterochromatin protein 1β (GenBank NM_001127228), 185 aa”, in the assay with H3K9me0 oligonucleosomes, the “assemblies with H3K9me0 oligonucleosomes (FCS)” value is listed as “larger assemblies only appeared at high hHP1β WT concentrations”. Besides, the “recovery at 3.5 mM and 7.0 mM MgCl2 with tailless H4 chromatin” value in assay [1] is “reduced recovery of hHP1β with H3K9me3 oligonucleosomes in the absence of the H4 N-terminal tail at 3.5 mM MgCl2; also recorded: recovery at 7.0 mM MgCl2 was comparable to the level obtained with H3K9me3 oligonucleosomes containing WT core histones”. The “retention on H3K9me3 versus unmodified matrices” value in assay [2] is “retained much more efficiently on all three matrices in the presence of H3K9me3”.

Regarding “hHP1β I161A: CSD point mutant of hHP1β incapable of dimerization”, the “recovery on H3K9me3 peptide” value with H3K9me3 peptide is on record as “significantly reduced recovery”.
